Laboratory results from ChEMBL document CHEMBL4007488, “Amphiphilic Indole Derivatives as Antimycobacterial Agents: Structure-Activity Relationships and Membrane Targeting Properties” (J Med Chem, 2017).
Values after ≈ are worked out from the molar mass of the structure shown. Active and inactive are the calls of the source. The rule behind the calls is not given here.

Experiments:
[1] = system: Lipid bilayer; test: Binding affinity to DMPG vesicles assessed as change in enthalpy by differential scanning calorimetric analysis
[2] = system: Lipid bilayer; test: Binding affinity to DMPG vesicles assessed as melting transition temperature by differential scanning calorimetric analysis (reference value: 21.09 to 23.32 degC)
[3] = system: Mycobacterium tuberculosis; test: Antimycobacterial activity against Mycobacterium tuberculosis H37Rv ATCC 27294 assessed as growth inhibition at 10 uM after 5 days relative to control; type: functional; conditions: H37Rv ATCC 27294, 120 h, read-out: GI
[4] = system: Mycolicibacterium smegmatis; test: Antimycobacterial activity against Mycobacterium smegmatis MC2 155 ATCC 700084 assessed as growth inhibition at 10 uM after 5 days relative to control; type: functional; conditions: MC2 155 ATCC 700084, 120 h, read-out: GI
[5] = system: Lipid bilayer; test: Binding affinity to DMPG vesicles assessed as increase in width at 1/2 height of endotherm of compound containing vesicles by differential scanning calorimetric analysis
[6] = Therapeutic index, ratio of HC50 for human RBC to MIC50 for Mycobacterium tuberculosis H37Rv ATCC 27294
[7] = system: Mycobacterium tuberculosis; test: Antimycobacterial activity against Mycobacterium tuberculosis H37Rv ATCC 27294 after 5 days by broth dilution method; type: functional; conditions: H37Rv ATCC 27294, 120 h
[8] = system: HepG2; test: Cytotoxicity against human HepG2 cells assessed as reduction in cell viability after 48 hrs by MTT assay; type: cell-based; conditions: HepG2, 48 h
[9] = system: Vero C1008; test: Cytotoxicity against African green monkey Vero E6 cells assessed as reduction in cell viability after 48 hrs by 96 aqueous one-based assay; conditions: Chlorocebus sabaeus, Vero C1008, 48 h
[10] = Aqueous solubility of compound at pH 7.4 at 25 degC after 24 hrs; type: physicochemical; conditions: buffer
[11] = Selectivity index, ratio of IC50 for human HepG2 cells to MIC50 for Mycobacterium tuberculosis H37Rv ATCC 27294; type: toxicity; conditions: read-out: Selectivity Index
[12] = Selectivity index, ratio of IC50 for African green monkey Vero E6 cells to MIC50 for Mycobacterium tuberculosis H37Rv ATCC 27294; type: toxicity, Vero C1008; conditions: read-out: Selectivity Index
[13] = Half life in rat liver microsomes preincubated for 5 mins followed by NADPH addition measured up to 45 mins by LC-MS analysis; type: ADME, microsome

SMILES | deltaH [1] [kcal/mol] | Tm [2] [°C] | inhibition of growth at 10 µM [3] [%] | inhibition of growth at 10 µM [4] [%] | Activity [5] | TI [6] | MIC50 [7] [µM] | MIC90 [7] [µM] | IC50 [8] [µM] | IC50 [9] [µM] | solubility at 24 h [10] [µM] | selectivity ratio [11] | selectivity ratio [12] | half-life [13] [min]
CCCCn1cc(CN2CCCCCC2)c2c(F)cccc21 | -3.3 | 19 | 99 | 99 |  |  |  |  |  |  |  |  |  | 
CCCCCCCCCCCCn1cc(CN2CCCCCC2)c2c(F)cccc21 | -0.44 | 18.8 | 99 | 99 | inactive |  |  |  |  |  |  |  |  | 
CCCCCCCCn1cc(CN2CCC(C)CC2)c2ccc(OC)cc21 | -1.63 | 18.9 | 99 | 99 |  | 15 to 30 | 1.5 (≈ 0.556 µg/mL) | 3.3 (≈ 1.22 µg/mL) | 15.7 | 32.2 | 44.9 (≈ 16.6 µg/mL) | 10.5 | 21.5 | 5.5
CCCCCCCCn1ccc2c(F)cccc21 | -3.34 | 19.9 | 99 | 99 | inactive |  |  |  |  |  |  |  |  | 
CCCCCCCCCCn1cc(CN2CCCCCC2)c2c(F)cccc21 | -0.963 | 18.6 | 99 | 99 | inactive |  |  |  |  |  |  |  |  | 
CCCCCCn1cc(CN2CCCCCC2)c2c(F)cccc21 | -1.52 | 19 | 99 | 99 |  |  |  |  |  |  |  |  |  | 
CCCCCCCCn1cc(CN2CCC3(CC2)OCCO3)c2c(F)cccc21 | -1.7 | 19.4 | 99 | 99 |  |  | 5.3 (≈ 2.13 µg/mL) | 10.6 (≈ 4.27 µg/mL) | 21.8 | 38.9 |  | 4.1 | 7.3 | 
CCn1cc(CN2CCCCCC2)c2c(F)cccc21 | -3.44 | 19.8 | 99 | 99 |  |  |  |  |  |  |  |  |  | 
CCCCCCCCn1cc(CN2CCC3(CC2)OCCO3)c2ccc(OC)cc21 | -1.59 | 18.1 | 99 | 99 |  | 15 to 30 | 1.2 (≈ 0.498 µg/mL) | 2.3 (≈ 0.954 µg/mL) | 15.7 | 46.1 | 31.3 (≈ 13 µg/mL) | 13.1 | 38.4 | 27.9
CC(C)=CCC/C(C)=C/Cn1cc(CN2CCCCC2)c2cc(F)ccc21 |  |  | 99 | 99 |  |  |  |  |  |  | 25 (≈ 9.21 µg/mL) |  | 6 | 
CCCCCCCCn1cc(CN2CCC(C)CC2)c2c(F)cccc21 | -2.69 | 19.8 | 99 | 99 |  |  | 3 (≈ 1.08 µg/mL) | 6 (≈ 2.15 µg/mL) | 15.6 | 35.2 | 23.2 (≈ 8.32 µg/mL) | 5.2 | 11.7 | 22.8
CCCCCCCCn1cc(CN2CCC3(CC2)OCCO3)c2ccc(F)cc21 | -2.15 | 18.5 | 99 | 99 |  |  | 3 (≈ 1.21 µg/mL) | 6 (≈ 2.42 µg/mL) | 25.5 | 47.5 |  | 8.5 | 15.8 | 
Fc1cccc2[nH]cc(CN3CCCCCC3)c12 | -4.83 | 20.4 | 99 | 99 |  |  |  |  |  |  |  |  |  | 
